# Test results published in ChEMBL document CHEMBL4007454 (J Med Chem, 2017).
# Experiments:
# [1] = biological target: T1, Leucine-rich repeat serine/threonine-protein kinase 2 (Homo sapiens, UniProt Q5S007, G2019S); test: Inhibition of recombinant human GST-tagged LRRK2 (970 to 2527 residues) G2019S mutant expressed in baculovirus using fluorescein-ERM as substrate preincubated for 30 mins followed by substrate addition measured after 1 hr by TR-FRET assay
# [2] = Efflux ratio of permeability […] in pig LLC-PK1 cells expressing rat MDR1; assay type: ADME, cell-based, Sus scrofa
# [3] = Efflux ratio of permeability […] in pig LLC-PK1 cells expressing human MDR1; assay type: ADME, cell-based, Sus scrofa
# [4] = Intrinsic clearance in human hepatocytes assessed per million cells at 1 uM after 180 mins by LC-MS/MS analysis; assay type: ADME, cell-based, Hepatocyte; conditions: read-out: CLH
# [5] = Intrinsic clearance in rat hepatocytes assessed per million cells at 1 uM after 180 mins by LC-MS/MS analysis; assay type: ADME, cell-based, Hepatocyte; conditions: read-out: CLH
# MDR1 (human) = test: Apparent permeability in pig LLC-PK1 cells expressing human MDR1; assay type: ADME, cell-based, Sus scrofa
# [6] = biological target: T2, Dual specificity protein kinase TTK (Homo sapiens) (UniProt P33981); test: Inhibition of recombinant human full length GST-tagged TTK expressed in baculovirus; conditions: concentration not given here
# T2 sequence (whole entry): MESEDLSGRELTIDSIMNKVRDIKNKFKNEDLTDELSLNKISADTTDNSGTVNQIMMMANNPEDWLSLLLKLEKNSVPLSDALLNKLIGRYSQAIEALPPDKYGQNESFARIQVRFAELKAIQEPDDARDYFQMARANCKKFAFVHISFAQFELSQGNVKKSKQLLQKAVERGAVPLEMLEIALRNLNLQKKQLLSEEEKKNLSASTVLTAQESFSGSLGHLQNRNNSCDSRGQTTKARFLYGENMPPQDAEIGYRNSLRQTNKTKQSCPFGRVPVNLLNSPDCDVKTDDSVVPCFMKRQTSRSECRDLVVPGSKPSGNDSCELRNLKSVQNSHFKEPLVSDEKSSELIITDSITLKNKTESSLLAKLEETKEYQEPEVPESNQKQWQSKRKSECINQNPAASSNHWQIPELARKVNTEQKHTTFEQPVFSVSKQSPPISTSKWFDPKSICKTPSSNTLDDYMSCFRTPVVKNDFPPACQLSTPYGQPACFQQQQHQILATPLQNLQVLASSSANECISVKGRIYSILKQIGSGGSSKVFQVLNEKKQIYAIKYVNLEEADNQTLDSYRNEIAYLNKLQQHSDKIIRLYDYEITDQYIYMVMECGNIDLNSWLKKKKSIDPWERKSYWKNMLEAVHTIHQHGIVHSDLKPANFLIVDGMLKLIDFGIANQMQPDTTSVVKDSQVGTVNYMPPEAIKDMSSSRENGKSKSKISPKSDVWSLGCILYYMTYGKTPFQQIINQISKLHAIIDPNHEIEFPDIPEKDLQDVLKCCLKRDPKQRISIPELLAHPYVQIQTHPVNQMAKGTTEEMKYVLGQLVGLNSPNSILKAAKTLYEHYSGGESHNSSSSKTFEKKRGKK
# [7] = biological target: T1, Leucine-rich repeat serine/threonine-protein kinase 2; test: Inhibition LRRK2 G2019S mutant Ser935 phosphorylation in human SH-SY5Y cells after 90 mins by Western blot analysis; assay type: cell-based
# [8] = Half life in Han-Wistar rat at 2 mg/kg, iv measured after 2 to 480 mins by LC-MS/MS analysis; assay type: ADME, organism-based; conditions: in vivo
# [9] = biological target: Mitogen-activated protein kinase 1 (Homo sapiens) (UniProt P28482); test: Inhibition of recombinant human full length GST-tagged ERK2 expressed in Escherichia coli at 1 uM
# Sequence of Mitogen-activated protein kinase 1 (Homo sapiens) (P28482 whole entry): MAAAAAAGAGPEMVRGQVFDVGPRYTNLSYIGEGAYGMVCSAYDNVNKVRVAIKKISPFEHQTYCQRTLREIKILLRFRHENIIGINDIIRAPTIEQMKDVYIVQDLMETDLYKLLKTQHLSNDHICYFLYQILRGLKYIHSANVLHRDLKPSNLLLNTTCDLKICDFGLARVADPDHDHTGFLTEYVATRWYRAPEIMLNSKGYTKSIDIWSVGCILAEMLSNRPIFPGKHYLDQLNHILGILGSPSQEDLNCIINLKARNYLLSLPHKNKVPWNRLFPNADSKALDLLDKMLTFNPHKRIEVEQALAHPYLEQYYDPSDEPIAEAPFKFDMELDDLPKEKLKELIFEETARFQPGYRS
# [10] = AUC (0 to 8 hrs) in Han-Wistar rat at 2 mg/kg, iv measured after 2 to 480 mins by LC-MS/MS analysis; assay type: ADME, organism-based; parameters: time < 8 hr, dose 2 mg/kg, route intravenous; conditions: in vivo
# [11] = biological target: T1, Leucine-rich repeat serine/threonine-protein kinase 2; test: Inhibition of recombinant human GST-tagged LRRK2 (970 to 2527 residues) G2019S mutant expressed in baculovirus using fluorescein-ERM as substrate preincubated for 30 mins followed by substrate addition measured after 1 hr in presence of 5 mM ATP by TR-FRET assay
# Plasma = test: Unbound plasma concentration in rat at 5 mg/kg, ip; assay type: ADME, organism-based; conditions: in vivo
# Cerebrospinal fluid = test: Drug level in rat Cerebrospinal fluid at 5 mg/kg, ip; assay type: ADME, organism-based; conditions: in vivo, read-out: Drug uptake
# [12] = biological target: Leucine-rich repeat serine/threonine-protein kinase 2 (Homo sapiens, UniProt Q5S007); test: Inhibition of wild type human recombinant LRRK2 expressed in baculovirus using fluorescein-ERM as substrate preincubated for 30 mins followed by substrate addition measured after 1 hr by TR-FRET assay
# Sequence of Leucine-rich repeat serine/threonine-protein kinase 2 (Homo sapiens, UniProt Q5S007) (Q5S007 whole entry): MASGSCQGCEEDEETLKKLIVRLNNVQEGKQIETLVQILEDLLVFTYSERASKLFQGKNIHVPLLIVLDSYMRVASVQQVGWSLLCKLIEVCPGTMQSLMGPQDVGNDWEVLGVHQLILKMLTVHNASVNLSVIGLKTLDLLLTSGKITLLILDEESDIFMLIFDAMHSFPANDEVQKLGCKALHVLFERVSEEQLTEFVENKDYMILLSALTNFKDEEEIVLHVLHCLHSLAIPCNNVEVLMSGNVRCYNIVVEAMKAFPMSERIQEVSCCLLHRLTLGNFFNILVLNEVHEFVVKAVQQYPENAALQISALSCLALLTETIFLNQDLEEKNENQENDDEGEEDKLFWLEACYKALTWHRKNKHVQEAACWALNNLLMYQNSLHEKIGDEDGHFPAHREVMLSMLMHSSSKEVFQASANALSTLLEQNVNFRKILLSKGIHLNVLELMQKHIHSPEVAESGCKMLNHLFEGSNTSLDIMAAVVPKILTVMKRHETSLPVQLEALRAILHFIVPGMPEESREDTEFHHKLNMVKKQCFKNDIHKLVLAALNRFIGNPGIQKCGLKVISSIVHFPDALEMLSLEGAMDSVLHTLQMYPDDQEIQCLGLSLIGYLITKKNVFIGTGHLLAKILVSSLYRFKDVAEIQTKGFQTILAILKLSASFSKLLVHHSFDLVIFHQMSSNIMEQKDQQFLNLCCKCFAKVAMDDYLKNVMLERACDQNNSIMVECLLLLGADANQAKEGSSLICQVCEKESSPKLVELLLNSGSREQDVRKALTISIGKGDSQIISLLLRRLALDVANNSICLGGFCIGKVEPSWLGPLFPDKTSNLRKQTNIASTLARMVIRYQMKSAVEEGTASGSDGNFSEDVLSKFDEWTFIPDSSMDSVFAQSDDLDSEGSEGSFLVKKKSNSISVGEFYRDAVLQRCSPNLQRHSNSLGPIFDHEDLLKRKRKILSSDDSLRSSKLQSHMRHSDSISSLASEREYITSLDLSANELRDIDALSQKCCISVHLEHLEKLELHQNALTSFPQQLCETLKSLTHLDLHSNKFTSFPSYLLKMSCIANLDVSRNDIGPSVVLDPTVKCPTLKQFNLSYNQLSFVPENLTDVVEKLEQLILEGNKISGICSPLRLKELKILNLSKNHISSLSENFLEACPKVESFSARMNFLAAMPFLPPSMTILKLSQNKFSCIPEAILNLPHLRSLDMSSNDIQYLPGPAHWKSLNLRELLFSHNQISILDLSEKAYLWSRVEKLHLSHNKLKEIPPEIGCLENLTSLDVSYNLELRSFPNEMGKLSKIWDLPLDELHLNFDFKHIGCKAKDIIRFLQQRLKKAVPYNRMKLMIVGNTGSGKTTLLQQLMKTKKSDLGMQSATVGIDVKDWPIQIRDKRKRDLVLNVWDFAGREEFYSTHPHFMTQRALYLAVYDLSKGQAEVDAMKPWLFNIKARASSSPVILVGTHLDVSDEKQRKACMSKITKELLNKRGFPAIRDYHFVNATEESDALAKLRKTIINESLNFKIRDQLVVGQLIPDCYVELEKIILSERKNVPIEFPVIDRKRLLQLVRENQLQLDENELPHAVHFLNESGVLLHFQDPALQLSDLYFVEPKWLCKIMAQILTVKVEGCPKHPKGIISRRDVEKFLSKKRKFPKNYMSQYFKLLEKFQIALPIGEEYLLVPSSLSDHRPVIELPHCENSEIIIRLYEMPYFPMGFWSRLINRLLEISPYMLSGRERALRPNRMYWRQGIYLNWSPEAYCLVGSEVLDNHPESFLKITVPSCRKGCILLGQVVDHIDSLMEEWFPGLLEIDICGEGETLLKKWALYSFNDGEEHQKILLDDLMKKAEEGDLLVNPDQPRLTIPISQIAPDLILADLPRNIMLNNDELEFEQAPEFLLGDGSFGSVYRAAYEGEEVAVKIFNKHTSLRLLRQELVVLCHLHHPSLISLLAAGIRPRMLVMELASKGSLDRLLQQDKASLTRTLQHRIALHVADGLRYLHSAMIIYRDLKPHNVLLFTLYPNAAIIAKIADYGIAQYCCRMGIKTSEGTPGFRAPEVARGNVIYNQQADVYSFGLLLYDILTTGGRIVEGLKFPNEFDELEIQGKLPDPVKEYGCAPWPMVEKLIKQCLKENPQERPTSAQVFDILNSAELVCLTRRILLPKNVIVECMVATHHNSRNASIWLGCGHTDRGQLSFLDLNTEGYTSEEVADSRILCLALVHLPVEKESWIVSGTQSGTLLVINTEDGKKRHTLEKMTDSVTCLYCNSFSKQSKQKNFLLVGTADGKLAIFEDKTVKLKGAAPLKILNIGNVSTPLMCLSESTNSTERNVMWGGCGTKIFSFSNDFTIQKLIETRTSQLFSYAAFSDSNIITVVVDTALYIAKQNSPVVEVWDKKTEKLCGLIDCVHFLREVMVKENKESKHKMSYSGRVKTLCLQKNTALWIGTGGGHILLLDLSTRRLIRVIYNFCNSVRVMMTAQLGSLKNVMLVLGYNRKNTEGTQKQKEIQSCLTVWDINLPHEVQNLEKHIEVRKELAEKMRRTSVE
# T1 sequence (Q5S007 whole entry G2019S, the tested form may be a part): as the sequence (Q5S007 whole entry) above, with G2019S counted along it
compound,measurement,setting,value
c1ccc(-c2n[nH]c3ccccc23)nc1,IC50,[1],6190 nM
c1cnnc(-c2ccc3[nH]nc(-c4ccnc(N5CCOCC5)c4)c3c2)c1,Ratio,[2],38
same,Ratio,[3],16
same,hepatocyte CLint at 1 µM,[4],10 µL/min/1e6 cells
same,hepatocyte CLint at 1 µM,[5],6 µL/min/1e6 cells
same,Papp,MDR1 (human),32 ×10⁻⁶ cm/s
CC(C)Oc1ccc2[nH]nc(-c3ccnc(N4CCOCC4)c3)c2c1,Ratio,[2],0.7
same,inhibition,[6],91%
same,Ratio,[3],0.5
same,hepatocyte CLint at 1 µM,[4],22 µL/min/1e6 cells
same,hepatocyte CLint at 1 µM,[5],49 µL/min/1e6 cells
same,IC50,[7],43 nM
same,IC50,[1],0.7 nM
same,half-life,[8],1 h
same,inhibition,[9],41%
same,AUC(0-t) at 8 h,[10],1 µM·h
same,Papp,MDR1 (human),30 ×10⁻⁶ cm/s
c1cc(-c2n[nH]c3ccc(C4CC4)cc23)cc(N2CCOCC2)n1,Ratio,[2],0.1
same,Ratio,[3],0.2
same,hepatocyte CLint at 1 µM,[4],31 µL/min/1e6 cells
same,hepatocyte CLint at 1 µM,[5],52 µL/min/1e6 cells
same,IC50,[1],13 nM
same,Papp,MDR1 (human),25 ×10⁻⁶ cm/s
O=S(=O)(c1ccc2[nH]nc(-c3ccnc(N4CCOCC4)c3)c2c1)C1CC1,Ratio,[2],44
same,Ratio,[3],20
same,hepatocyte CLint at 1 µM,[4],7.3 µL/min/1e6 cells
same,hepatocyte CLint at 1 µM,[5],15 µL/min/1e6 cells
same,Papp,MDR1 (human),35 ×10⁻⁶ cm/s
C[C@@H]1CN(c2cc(-c3n[nH]c4ccc(OC5(C)CC5)cc34)ncn2)CCO1,Ratio,[2],0.4
same,Ratio,[3],0.3
same,hepatocyte CLint at 1 µM,[4],7 µL/min/1e6 cells
same,hepatocyte CLint at 1 µM,[5],15 µL/min/1e6 cells
same,IC50,[7],5 nM
same,IC50,[1],2 nM
same,IC50,[11],13 nM
same,Papp,MDR1 (human),28 ×10⁻⁶ cm/s
CC(C)Oc1ccc2[nH]nc(-c3ccnc(N4CCN(S(C)(=O)=O)CC4)c3)c2c1,Ratio,[2],0.6
same,Ratio,[3],0.4
same,hepatocyte CLint at 1 µM,[4],7 µL/min/1e6 cells
same,hepatocyte CLint at 1 µM,[5],32 µL/min/1e6 cells
same,IC50,[7],83 nM
same,IC50,[11],14 nM
same,Papp,MDR1 (human),29 ×10⁻⁶ cm/s
CC1(Oc2ccc3[nH]nc(-c4cc(N5CCOCC5)ncn4)c3c2)CC1,hepatocyte CLint at 1 µM,[4],8 µL/min/1e6 cells
same,hepatocyte CLint at 1 µM,[5],18 µL/min/1e6 cells
same,Papp,MDR1 (human),35 ×10⁻⁶ cm/s
CC(C)Oc1ccc2[nH]nc(-c3ccnc(N4C[C@@H](F)[C@H](F)C4)c3)c2c1,Ratio,[2],0.7
same,Ratio,[3],0.4
same,hepatocyte CLint at 1 µM,[4],25 µL/min/1e6 cells
same,hepatocyte CLint at 1 µM,[5],39 µL/min/1e6 cells
same,IC50,[7],341 nM
same,IC50,[1],6.6 nM
same,IC50,[11],128 nM
same,Papp,MDR1 (human),31 ×10⁻⁶ cm/s
c1ccc2c(-c3cncc(N4CCOCC4)c3)n[nH]c2c1,Ratio,[2],0.5
same,Ratio,[3],0.4
same,IC50,[1],256 nM
same,Papp,MDR1 (human),38 ×10⁻⁶ cm/s
CC1(Oc2ccc3[nH]nc(-c4cc(N5CCN(S(C)(=O)=O)CC5)ncn4)c3c2)CC1,Ratio,[2],12
same,Ratio,[3],2.2
same,hepatocyte CLint at 1 µM,[5],10 µL/min/1e6 cells
same,IC50,[7],7.6 nM
same,IC50,[1],2.2 nM
same,Papp,MDR1 (human),30 ×10⁻⁶ cm/s
CC(C)Oc1ccc2[nH]nc(-c3cc(N4CCOCC4)ncn3)c2c1,Ratio,[2],0.4
same,Ratio,[3],0.6
same,hepatocyte CLint at 1 µM,[4],6 µL/min/1e6 cells
same,hepatocyte CLint at 1 µM,[5],13 µL/min/1e6 cells
same,IC50,[7],41 nM
same,Papp,MDR1 (human),38 ×10⁻⁶ cm/s
C[C@H]1CN(c2cc(-c3n[nH]c4ccc(OC5(C)CC5)cc34)ncn2)CCO1,Ratio,[2],0.5
same,Ratio,[3],0.5
same,hepatocyte CLint at 1 µM,[4],7 µL/min/1e6 cells
same,hepatocyte CLint at 1 µM,[5],26 µL/min/1e6 cells
same,IC50,[7],3.8 nM
same,IC50,[11],76 nM
same,Papp,MDR1 (human),27 ×10⁻⁶ cm/s
c1ccc2c(-c3cc(N4CCOCC4)ncn3)n[nH]c2c1,hepatocyte CLint at 1 µM,[4],9 µL/min/1e6 cells
same,hepatocyte CLint at 1 µM,[5],30 µL/min/1e6 cells
c1cc(-c2n[nH]c3ccc(OC4CC4)cc23)cc(N2CCOCC2)n1,Ratio,[2],0.3
same,Ratio,[3],0.3
same,hepatocyte CLint at 1 µM,[4],37 µL/min/1e6 cells
same,hepatocyte CLint at 1 µM,[5],32 µL/min/1e6 cells
same,IC50,[1],41 nM
same,Papp,MDR1 (human),31 ×10⁻⁶ cm/s
c1ccc2c(-c3ccncc3)n[nH]c2c1,IC50,[1],904 nM
N#Cc1ccc2[nH]nc(-c3ccnc(N4CCOCC4)c3)c2c1,Ratio,[2],1.3
same,Ratio,[3],0.7
same,IC50,[1],64 nM
same,Papp,MDR1 (human),34 ×10⁻⁶ cm/s
COCCNc1cc(-c2n[nH]c3ccccc23)ccn1,IC50,[1],98 nM
CN(c1cccc(S(C)(=O)=O)c1)c1ccc2[nH]nc(-c3ccncc3)c2c1,Cp(f),Plasma,42 nM
same,concentration,Cerebrospinal fluid,36 nM
same,IC50,[12],44 nM
c1ccc2c(-c3ccnc(N4CCOCC4)c3)n[nH]c2c1,Ratio,[2],0.2
same,Ratio,[3],0.3
same,IC50,[1],12 nM
same,Papp,MDR1 (human),19 ×10⁻⁶ cm/s
CC(C)Oc1ccc2[nH]nc(-c3ccnc(N4CCC(n5cnnc5)CC4)c3)c2c1,Ratio,[2],41
same,Ratio,[3],40
same,hepatocyte CLint at 1 µM,[4],2 µL/min/1e6 cells
same,hepatocyte CLint at 1 µM,[5],19 µL/min/1e6 cells
same,IC50,[7],194 nM
same,IC50,[11],69 nM
same,Papp,MDR1 (human),46 ×10⁻⁶ cm/s
Cn1cc(-c2ccc3[nH]nc(-c4ccnc(N5CCOCC5)c4)c3c2)cn1,Ratio,[2],6.3
same,Ratio,[3],1.5
same,hepatocyte CLint at 1 µM,[4],7 µL/min/1e6 cells
same,hepatocyte CLint at 1 µM,[5],31 µL/min/1e6 cells
same,Papp,MDR1 (human),38 ×10⁻⁶ cm/s
Nc1cc(-c2n[nH]c3ccc(Nc4ccccc4)cc23)ccn1,IC50,[12],728 nM
CC(C)Oc1ccc2[nH]nc(-c3ccnc(N4CCN(C)CC4)c3)c2c1,Ratio,[2],1.7
same,Ratio,[3],0.6
same,hepatocyte CLint at 1 µM,[4],7 µL/min/1e6 cells
same,hepatocyte CLint at 1 µM,[5],36 µL/min/1e6 cells
same,IC50,[7],52 nM
same,IC50,[1],0.8 nM
same,Papp,MDR1 (human),27 ×10⁻⁶ cm/s
COc1ccc2[nH]nc(-c3ccnc(N4CCOCC4)c3)c2c1,Ratio,[2],0.4
same,Ratio,[3],0.2
same,hepatocyte CLint at 1 µM,[4],23 µL/min/1e6 cells
same,hepatocyte CLint at 1 µM,[5],28 µL/min/1e6 cells
same,IC50,[1],15 nM
same,Papp,MDR1 (human),33 ×10⁻⁶ cm/s
c1cncc(-c2n[nH]c3ccccc23)c1,IC50,[1],1230 nM
CC(C)Oc1ccc2[nH]nc(-c3ccnc(N4CCN(C)C(=O)C4)c3)c2c1,Ratio,[2],15
same,Ratio,[3],3.2
same,hepatocyte CLint at 1 µM,[4],16 µL/min/1e6 cells
same,hepatocyte CLint at 1 µM,[5],38 µL/min/1e6 cells
same,IC50,[7],59 nM
same,IC50,[11],91 nM
same,Papp,MDR1 (human),38 ×10⁻⁶ cm/s
